Assay results published in patent US20250114486A1, “MARKED FATTY ACID DERIVATIVE, PRECURSOR COMPOUND THEREOF, AND USE THEREOF IN CONTRAST AGENT” (BEIJING NORMAL UNIVERSITY, priority 2022, published 2025).

Experiment: In vivo biodistribution of radioactive ^99mTc complexes in female SD rats
Design: species or system female Sprague-Dawley (SD) rats
Settings: for Biodistribution: Large Intestine / Biodistribution: Small Intestine / Biodistribution: Stomach: unit % ID
Protocol: Female SD rats (180-220 g, n=3) were fasted for 12 h before the experiment, and the purified radioactive 99mTc complexes 78-81 were prepared into physiological saline (containing 10% ethanol) solutions of about 250-350 μCi/mL. 200 μL of the above solution was injected into the tail vein of female SD rats, and the rats were killed by cervical dislocation at five time points, 15, 30, 60, 120 and 240 min after the tail vein injection. The blood, brain, heart, liver, spleen, lung, kidney, muscle, bone, large intestine, small intestine, stomach and tail were collected, weighed and counted, and the count distribution of each tissue and organ was calculated (unit: % ID/g, the unit of large intestine, small intestine and stomach is % ID), and the data are the mean±standard deviation of three mice in each phase. At the same time, 200 μL of the above solution was diluted to 20 mL, which was used as the % ID without deducting the tail count.

COC(C)(C)C[N+]#[C][99Tc-5]([C]#[N+]CC(C)(C)OC)([C]#[N+]CC(C)(C)OC)([C]#[N+]CC(C)(C)OC)([C]#[N+]CC(C)(C)OC)[C]#[N+]CC(C)(C)OCCCCCSCCCCC(=O)O [^99mTc complex 80]
Biodistribution: Blood (15 min post-injection): 0.018 ± 0.003 ID %/g | Biodistribution: Bone (15 min post-injection): 0.11 ± 0.05 ID %/g | Biodistribution: Brain (15 min post-injection): 0.008 ± 0.004 ID %/g | Biodistribution: Heart (15 min post-injection): 0.94 ± 0.16 ID %/g | Biodistribution: Kidney (15 min post-injection): 2.43 ± 0.10 ID %/g | Biodistribution: Liver (15 min post-injection): 0.49 ± 0.03 ID %/g | Biodistribution: Lungs (15 min post-injection): 0.14 ± 0.04 ID %/g | Biodistribution: Muscle (15 min post-injection): 0.14 ± 0.04 ID %/g | Biodistribution: Spleen (15 min post-injection): 0.23 ± 0.06 ID %/g | Heart-to-Blood ratio (15 min post-injection): 53.37 ± 6.93 | Heart-to-Liver ratio (15 min post-injection): 1.91 ± 0.40 | Heart-to-Lungs ratio (15 min post-injection): 7.04 ± 1.69 | absolute myocardial uptake value (15 min post-injection): 0.94±0.16 % ID/g | Biodistribution: Large Intestine (15 min post-injection): 5.34 ± 1.37 % ID | Biodistribution: Small Intestine (15 min post-injection): 8.49 ± 0.85 % ID | Biodistribution: Stomach (15 min post-injection): 0.27 ± 0.09 % ID | Biodistribution: Blood (30 min post-injection): 0.026 ± 0.003 ID %/g | Biodistribution: Bone (30 min post-injection): 0.10 ± 0.01 ID %/g | Biodistribution: Brain (30 min post-injection): 0.010 ± 0.003 ID %/g | Biodistribution: Heart (30 min post-injection): 1.42 ± 0.32 ID %/g | Biodistribution: Kidney (30 min post-injection): 4.66 ± 0.51 ID %/g | Biodistribution: Liver (30 min post-injection): 1.01 ± 0.29 ID %/g | Biodistribution: Lungs (30 min post-injection): 0.32 ± 0.04 ID %/g | Biodistribution: Muscle (30 min post-injection): 0.22 ± 0.07 ID %/g | Biodistribution: Spleen (30 min post-injection): 0.26 ± 0.06 ID %/g | Heart-to-Blood ratio (30 min post-injection): 54.80±11.86 | Heart-to-Liver ratio (30 min post-injection): 1.48 ± 0.45 | Heart-to-Lungs ratio (30 min post-injection): 4.40 ± 0.64 | absolute myocardial uptake value (30 min post-injection): 1.42±0.32 % ID/g | Biodistribution: Large Intestine (30 min post-injection): 6.69 ± 0.68 % ID | Biodistribution: Small Intestine (30 min post-injection): 10.71 ± 1.89 % ID | Biodistribution: Stomach (30 min post-injection): 0.53 ± 0.07 % ID | Biodistribution: Blood (60 min post-injection): 0.013 ± 0.003 ID %/g | Biodistribution: Bone (60 min post-injection): 0.064 ± 0.004 ID %/g | Biodistribution: Brain (60 min post-injection): 0.011 ± 0.005 ID %/g | Biodistribution: Heart (60 min post-injection): 2.06 ± 0.06 ID %/g | Biodistribution: Kidney (60 min post-injection): 2.39 ± 0.58 ID %/g | Biodistribution: Liver (60 min post-injection): 0.33 ± 0.09 ID %/g | Biodistribution: Lungs (60 min post-injection): 0.22 ± 0.03 ID %/g | Biodistribution: Muscle (60 min post-injection): 0.48 ± 0.06 ID %/g | Biodistribution: Spleen (60 min post-injection): 0.16 ± 0.06 ID %/g | Heart-to-Blood ratio (60 min post-injection): 164.01±43.51 | Heart-to-Liver ratio (60 min post-injection): 6.43±1.85 | Heart-to-Lungs ratio (60 min post-injection): 9.48±1.39 | absolute myocardial uptake value (60 min post-injection): 2.06 0.06 % ID/g | Biodistribution: Large Intestine (60 min post-injection): 12.36 ± 2.55 % ID | Biodistribution: Small Intestine (60 min post-injection): 6.75 ± 1.89 % ID | Biodistribution: Stomach (60 min post-injection): 0.56 ± 0.27 % ID | Biodistribution: Blood (120 min post-injection): 0.009 ± 0.001 ID %/g | Biodistribution: Bone (120 min post-injection): 0.07 ± 0.02 ID %/g | Biodistribution: Brain (120 min post-injection): 0.010 ± 0.005 ID %/g | Biodistribution: Heart (120 min post-injection): 1.73 ± 0.09 ID %/g | Biodistribution: Kidney (120 min post-injection): 1.30 ± 0.41 ID %/g | Biodistribution: Liver (120 min post-injection): 0.18 ± 0.01 ID %/g | Biodistribution: Lungs (120 min post-injection): 0.16 ± 0.01 ID %/g | Biodistribution: Muscle (120 min post-injection): 0.34 ± 0.03 ID %/g | Biodistribution: Spleen (120 min post-injection): 0.15 ± 0.01 ID %/g | Heart-to-Blood ratio (120 min post-injection): 197.36±32.29 | Heart-to-Liver ratio (120 min post-injection): 9.68±0.76 | Heart-to-Lungs ratio (120 min post-injection): 11.40±3.06 | absolute myocardial uptake value (120 min post-injection): 1.73±0.09 % ID/g
